ChEMBL document CHEMBL5576037, “Discovery of the first ataxia telangiectasia and Rad3-related (ATR) degraders for cancer treatment” (Eur J Med Chem, 2024)
Activity calls are given as the source filed them. The calls are words filed in the database; no cut-off is given here.

Tests used:
[1] = biological target: T1, Protein cereblon/Serine/threonine-protein kinase ATR (Homo sapiens, UniProt Q13535+Q96SW2); test: In vivo PROTAC activity at CRBN/ATR in BALB/c nude mouse xenografted with human LoVo cells assessed as reduction in ATR phosphorylation at Thr1989 residue administered intraperitoneally once daily for 15 days by Western blot analysis; format: functional, organism-based; details: dose 12.5-25 mg/kg, route ip, time 15.0 day
[2] = MRT (0 to infinity) in BALB/c nude mouse xenografted with human LoVo cells at 25 mg/kg, ip administered as single dose and measured after 12 hrs by LC-MS/MS analysis; format: ADME, organism-based; details: in vivo
[3] = biological target: Serine/threonine-protein kinase ATR (Homo sapiens, UniProt Q13535); test: Inhibition of ATR phosphorylation at Thr1989 residue in human LoVo cells incubated for 72 hrs by Western blot analysis; format: cell-based; details: dose 0.16-10 µM
LoVo [4] = test: Cell cycle arrest in human LoVo cells assessed as accumulation of cells at G2/M phase at 0.5 uM incubated for 72 hrs by PI staining based flow cytometric analysis (reference value: 22.2 %); format: functional
[5] = biological target: T1, Protein cereblon/Serine/threonine-protein kinase ATR; test: PROTAC activity at CRBN/ATR in human LoVo cells assessed as induction of ATR degradation at 2.5 uM preincubated with AZD6738 for 4 hrs followed by compound addition and measured after 48 hrs by Western blot analysis; format: cell-based
[6] = biological target: T2, ATPase family gene 2 protein homolog B (Homo sapiens) (UniProt Q9BVQ7); test: Induction of SPATA5L1 degradation in human LoVo cells at 1 uM incubated for 24 hrs by global proteomic profiling analysis; format: cell-based
T2 sequence (whole entry): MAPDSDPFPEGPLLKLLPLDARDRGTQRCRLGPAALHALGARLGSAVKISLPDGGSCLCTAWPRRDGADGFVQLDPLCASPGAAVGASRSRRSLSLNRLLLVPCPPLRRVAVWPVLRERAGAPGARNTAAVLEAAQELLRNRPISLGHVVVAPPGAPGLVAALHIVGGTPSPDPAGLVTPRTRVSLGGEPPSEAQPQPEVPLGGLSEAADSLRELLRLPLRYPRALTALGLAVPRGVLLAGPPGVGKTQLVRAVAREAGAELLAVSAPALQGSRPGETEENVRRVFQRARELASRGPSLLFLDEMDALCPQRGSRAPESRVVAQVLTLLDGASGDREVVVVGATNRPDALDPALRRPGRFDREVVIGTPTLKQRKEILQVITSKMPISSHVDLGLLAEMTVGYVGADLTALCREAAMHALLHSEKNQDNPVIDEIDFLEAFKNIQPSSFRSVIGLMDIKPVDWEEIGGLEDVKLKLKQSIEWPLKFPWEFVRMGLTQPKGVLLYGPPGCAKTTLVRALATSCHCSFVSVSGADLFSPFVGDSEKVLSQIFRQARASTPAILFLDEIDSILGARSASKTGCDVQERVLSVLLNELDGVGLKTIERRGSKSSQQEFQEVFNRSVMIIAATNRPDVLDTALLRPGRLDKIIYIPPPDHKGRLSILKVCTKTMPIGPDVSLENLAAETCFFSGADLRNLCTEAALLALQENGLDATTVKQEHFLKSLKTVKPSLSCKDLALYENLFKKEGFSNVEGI

LoVo [7] = test: Cell cycle arrest in human LoVo cells assessed as accumulation of cells at G2/M phase at 1 uM incubated for 72 hrs by PI staining based flow cytometric analysis (reference value: 22.2 %); format: functional
[8] = Tmax in BALB/c nude mouse xenografted with human LoVo cells at 25 mg/kg, ip administered as single dose and measured after 12 hrs by LC-MS/MS analysis; format: ADME, organism-based; details: in vivo

- Activity [1]: Dose-Dependent Effect
- MRT inf [2]: 4.65 h
- inhibition [3]: Dose-Dependent Effect
- Activity [5]: inactive
- Activity [6]: Active
- Tmax [8]: 2 h
SMILES: C[C@@H]1COCCN1c1cc(C2([S@@](C)(=O)=NC(=O)CCc3cn(CCCCCCCC(=O)Nc4cccc5c4C(=O)N(C4CCC(=O)NC4=O)C5=O)nn3)CC2)nc(-c2ccnc3[nH]ccc23)n1 (stereo partly drawn)
- Activity (LoVo [4]): 19.7%
- Activity (LoVo [7]): 13.4%
